Source: the NIST ThermoML archive (doi:10.1021/je200565u)
Numbers after ± are expanded uncertainties. Each block holds one molecule with its values, some of them ahead of it.

Details: Liquid, Closed cell (Static) method

Compound: CCCCOCCO [2-butoxyethan-1-ol]
vapor or sublimation pressure (441.3 K): 93.9 ± 0.8 kPa
vapor or sublimation pressure (441.5 K): 93.6 ± 0.8 kPa
vapor or sublimation pressure (442.1 K): 94.1 ± 0.8 kPa

Compound: CCCCOCCOC(C)=O [2-butoxyethyl acetate]
vapor or sublimation pressure (463 K): 93.7 ± 0.8 kPa
vapor or sublimation pressure (463.3 K): 93.6 ± 0.8 kPa
vapor or sublimation pressure (464.2 K): 93.9 ± 0.8 kPa

vapor or sublimation pressure (406.2 K): 93.3 ± 0.8 kPa
vapor or sublimation pressure (406.9 K): 93.3 ± 0.8 kPa
vapor or sublimation pressure (407.8 K): 93.6 ± 0.8 kPa
Compound: CCOCCO [2-ethoxyethan-1-ol]

Compound: CCOCCOC(C)=O [2-ethoxyethyl ethanoate]
vapor or sublimation pressure (427.8 K): 93.3 ± 0.8 kPa
vapor or sublimation pressure (428.3 K): 93.7 ± 0.8 kPa
vapor or sublimation pressure (428.6 K): 93.3 ± 0.8 kPa
